Measurements: patent US20140213513A1 (Sanofi, priority 2012, published 2014)
≈ marks a conversion by molar mass, not a printed value. Like-named read-outs stand apart in the source and are kept apart here. *1 amine or outer side, *2 acyl side, *3 side chain or, on linkers, in order; H or OH if unused. Where a SMILES comes first, the peptide text is derived from it. Side-chain parts run from the residue outwards. [ ]: non-standard residue; d: D form. The star is where a group is joined. γGlu = O=C(O)[C@H](CCC(=O)[*:2])N[*:1]; Palmitoyl = CCCCCCCCCCCCCCCC(=O)*; Aib = CC(C)(N)C(=O)O

Experiments:
[1] = biological target: T1, human GIP receptor (human) (UniProt P48546); assay: cell-based or functional assay
T1 sequence (looked up): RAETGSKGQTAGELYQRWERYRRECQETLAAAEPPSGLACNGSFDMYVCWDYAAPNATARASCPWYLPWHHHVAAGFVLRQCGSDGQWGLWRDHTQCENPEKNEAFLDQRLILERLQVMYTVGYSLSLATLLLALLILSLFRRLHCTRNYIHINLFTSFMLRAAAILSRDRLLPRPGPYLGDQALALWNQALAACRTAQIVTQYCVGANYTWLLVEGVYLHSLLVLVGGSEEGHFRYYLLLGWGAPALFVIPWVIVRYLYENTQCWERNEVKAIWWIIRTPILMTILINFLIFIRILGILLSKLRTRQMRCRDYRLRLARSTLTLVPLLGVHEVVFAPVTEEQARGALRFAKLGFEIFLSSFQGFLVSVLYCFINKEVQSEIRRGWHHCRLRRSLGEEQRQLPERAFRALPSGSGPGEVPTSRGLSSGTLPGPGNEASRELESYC

[2] = biological target: human GLP-1 receptor (human) (UniProt P43220); assay: cell-based or functional assay
human GLP-1 receptor (human), sequence (P43220 24-463): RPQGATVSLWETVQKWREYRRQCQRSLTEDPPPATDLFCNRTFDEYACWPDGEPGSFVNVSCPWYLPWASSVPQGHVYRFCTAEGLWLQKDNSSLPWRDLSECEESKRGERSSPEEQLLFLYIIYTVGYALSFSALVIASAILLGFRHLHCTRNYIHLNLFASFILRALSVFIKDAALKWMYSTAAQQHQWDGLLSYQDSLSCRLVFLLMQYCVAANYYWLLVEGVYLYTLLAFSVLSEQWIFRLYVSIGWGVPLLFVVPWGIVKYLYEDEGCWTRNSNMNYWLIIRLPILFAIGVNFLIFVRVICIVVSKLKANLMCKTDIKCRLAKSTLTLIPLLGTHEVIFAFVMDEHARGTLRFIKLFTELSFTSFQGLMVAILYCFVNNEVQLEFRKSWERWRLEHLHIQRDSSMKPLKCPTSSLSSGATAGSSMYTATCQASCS

[3] = biological target: T2, human GLP-1 receptor (hGLP-1 R) (Homo sapiens, UniProt P43220); assay: cAMP response of HEK-293 cells stably expressing human GLP-1 receptor (HTRF); assay type: cell-based; settings: Table 7; cAMP formation
T2 construct: expressed in transfected cells
T2 sequence (P43220 24-463): as above
In short: (§1)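 After near-confluent growth in DMEM with 10% FBS, cells were washed in Ca/Mg-free PBS, lifted with accutase and diluted to 400000 cells/ml in IBMX (2 mM)-containing HEPES-buffered HBSS with 0.1% BSA. Compounds were applied for 30 minutes at room temperature before homogeneous time-resolved fluorescence quantitation of cAMP.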

[4] = biological target: T3, human GIP receptor (hGIP R) (Homo sapiens, UniProt P48546); assay: cAMP response of HEK-293 cells stably expressing human GIP receptor (HTRF); assay type: cell-based; settings: Table 7; cAMP formation
T3 construct: expressed in transfected cells
T3 sequence (P48546 22-466): T1 sequence (looked up)
In short: as §1

[5] = biological target: T4, human glucagon receptor (hGLUC R) (Homo sapiens, UniProt P47871); assay: cAMP response of HEK-293 cells stably expressing human glucagon receptor (HTRF); assay type: cell-based; settings: Table 7; cAMP formation
T4 construct: expressed in transfected cells
T4 sequence (P47871 26-477): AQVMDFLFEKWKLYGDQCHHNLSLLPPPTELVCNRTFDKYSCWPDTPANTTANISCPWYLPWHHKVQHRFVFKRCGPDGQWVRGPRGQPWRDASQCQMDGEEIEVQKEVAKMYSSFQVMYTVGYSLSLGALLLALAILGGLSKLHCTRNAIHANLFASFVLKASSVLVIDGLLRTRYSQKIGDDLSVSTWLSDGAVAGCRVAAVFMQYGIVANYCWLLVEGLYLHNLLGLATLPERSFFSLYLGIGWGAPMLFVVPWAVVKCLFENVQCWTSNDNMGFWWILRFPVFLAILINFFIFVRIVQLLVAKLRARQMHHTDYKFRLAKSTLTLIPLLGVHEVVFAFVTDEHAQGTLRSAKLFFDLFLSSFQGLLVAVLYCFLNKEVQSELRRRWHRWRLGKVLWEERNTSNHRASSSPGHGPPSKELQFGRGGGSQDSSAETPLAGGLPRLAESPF
In short: as §1

[6] = Solubility testing in buffer (HPLC-UV of supernatant); assay type: physicochemical
[7] = Pharmacokinetic testing in mice (plasma LC/MS); assay type: in vivo; settings: mouse, sc, 1 mg/kg s.c.
Protocol: Mice were dosed 1 mg/kg subcutaneously (s.c.).
Pharmacokinetic profiles were determined as described in Methods.

[8] = pH 4.5, target concentration 1.0 mg/mL, read-out: Solubility (pH 4.5)
[9] = pH 7.4, target concentration 1.0 mg/mL, read-out: Solubility (pH 7.4)

| Compound | EC50 hGIP R [1] [pM] | EC50 hGLP-1 R [2] [pM] | EC50 [3] [pM] | EC50 [4] [pM] | EC50 [5] [pM] | solubility at 2 h [6, 8] [mg/mL] | solubility at 2 h [6, 9] [mg/mL] | Cmax [7] [µg/mL] | half-life [7] [h] |
| --- | --- | --- | --- | --- | --- | --- | --- | --- | --- |
| Tyr(1)Ile(12)-exendin-4 (peptide) | 93.9 | 1.3 | – | – | – | – | – | – | – |
| CCCCCCCCCCCCCCCC(=O)N[C@@H](CCC(=O)NCCCC[C@H](NC(=O)[C@H](CCC(N)=O)NC(=O)[C@@H](NC(=O)[C@H](CO)NC(=O)[C@H](CC(C)C)NC(=O)[C@H](CC(=O)O)NC(=O)[C@H](CO)NC(=O)[C@@H](NC(=O)[C@H](Cc1ccccc1)NC(=O)[C@@H](NC(=O)CNC(=O)[C@H](CCC(N)=O)NC(=O)C(C)(C)NC(=O)[C@@H](N)Cc1ccc(O)cc1)[C@@H](C)O)[C@@H](C)O)[C@@H](C)CC)C(=O)N[C@@H](CCC(=O)O)C(=O)N[C@@H](CCCCN)C(=O)N[C@@H](CCCNC(=N)N)C(=O)N[C@@H](C)C(=O)N[C@@H](C)C(=O)NC(C)(C)C(=O)N[C@@H](CCC(=O)O)C(=O)N[C@@H](Cc1ccccc1)C(=O)N[C@H](C(=O)N[C@@H](CCC(=O)O)C(=O)N[C@@H](Cc1c[nH]c2ccccc12)C(=O)N[C@@H](CC(C)C)C(=O)N[C@@H](CCCCN)C(=O)N[C@@H](C)C(=O)N[C@H](C)C(=O)NCC(=O)N1CCC[C@H]1C(=O)N[C@@H](CO)C(=O)N[C@@H](CO)C(=O)NCC(=O)N[C@@H](C)C(=O)N1CCC[C@H]1C(=O)N1CCC[C@H]1C(=O)N1CCC[C@H]1C(=O)N[C@@H](CO)C(N)=O)[C@@H](C)CC)C(=O)O [SEQ ID NO: 14, Y-Aib-Q-G-T-F-T-S-D-L-S-I-Q-K(yE-x53)-E-K-R-A-A-Aib-E-F-I-E-W-L-K-A-dAla-G-P-S-S-G-A-P-P-P-S-N H2] | – | – | 6.5 | 6.2 | 62.3 | 1.02 (≈ 227 µM) | > 1 | 5.57 | 2.2 |
| CCCCCCCCCCCCCCCC(=O)N[C@@H](CCC(=O)NCCCC[C@H](NC(=O)[C@H](CCC(N)=O)NC(=O)[C@H](CCCCN)NC(=O)[C@H](CO)NC(=O)[C@H](CC(C)C)NC(=O)[C@H](CC(=O)O)NC(=O)[C@H](CO)NC(=O)[C@@H](NC(=O)[C@H](Cc1ccccc1)NC(=O)[C@@H](NC(=O)CNC(=O)[C@H](CCC(=O)O)NC(=O)C(C)(C)NC(=O)[C@@H](N)Cc1ccc(O)cc1)[C@@H](C)O)[C@@H](C)O)C(=O)N[C@@H](CCC(=O)O)C(=O)N[C@@H](CCCCN)C(=O)N[C@@H](CCC(=O)O)C(=O)N[C@@H](C)C(=O)N[C@@H](C)C(=O)NC(C)(C)C(=O)N[C@@H](CCC(=O)O)C(=O)N[C@@H](Cc1ccccc1)C(=O)N[C@H](C(=O)N[C@@H](CCC(=O)O)C(=O)N[C@@H](Cc1c[nH]c2ccccc12)C(=O)N[C@@H](CC(C)C)C(=O)N[C@@H](CCCCN)C(=O)N[C@@H](C)C(=O)NCC(=O)NCC(=O)N1CCC[C@H]1C(=O)N[C@@H](CO)C(=O)N[C@@H](CO)C(=O)NCC(=O)N[C@@H](C)C(=O)N1CCC[C@H]1C(=O)N1CCC[C@H]1C(=O)N1CCC[C@H]1C(=O)N[C@@H](CO)C(N)=O)[C@@H](C)CC)C(=O)O [SEQ ID NO: 17, Y-Aib-E-G-T-F-T-S-D-L-S-K-Q-K(yE-x53)-E-K-E-A-A-Aib-E-F-I-E-W-L-K-A-G-G-P-S-S-G-A-P-P-P-S-NH2] (H-Y[Aib]EGTFTSDLSKQK([γGlu-Palmitoyl])EKEAA[Aib]EFIEWLKAGGPSSGAPPPS-NH2) | – | – | 5.2 | 8.3 | 21000 | > 1 | > 1 | – | – |
| CCCCCCCCCCCCCCCC(=O)N[C@@H](CCC(=O)NCCCC[C@H](NC(=O)[C@H](CCC(N)=O)NC(=O)[C@@H](NC(=O)[C@H](CO)NC(=O)[C@H](CC(C)C)NC(=O)[C@H](CC(=O)O)NC(=O)[C@H](CO)NC(=O)[C@@H](NC(=O)[C@H](Cc1ccccc1)NC(=O)[C@@H](NC(=O)CNC(=O)[C@H](CCC(=O)O)NC(=O)C(C)(C)NC(=O)[C@@H](N)Cc1ccc(O)cc1)[C@@H](C)O)[C@@H](C)O)[C@@H](C)CC)C(=O)N[C@@H](CCC(=O)O)C(=O)N[C@@H](CCC(=O)O)C(=O)N[C@@H](CCCNC(=N)N)C(=O)N[C@@H](C)C(=O)N[C@@H](C)C(=O)N[C@@H](Cc1c[nH]cn1)C(=O)N[C@@H](CCC(=O)O)C(=O)N[C@@H](Cc1ccccc1)C(=O)N[C@H](C(=O)N[C@@H](CCC(=O)O)C(=O)N[C@@H](Cc1c[nH]c2ccccc12)C(=O)N[C@@H](CC(C)C)C(=O)N[C@@H](CCCCN)C(=O)N[C@@H](CCCNC(=N)N)C(=O)NC(C)(C)C(=O)NCC(=O)N1CCC[C@H]1C(=O)N[C@@H](CO)C(=O)N[C@@H](CO)C(=O)NCC(=O)N[C@@H](C)C(=O)N1CCC[C@H]1C(=O)N1CCC[C@H]1C(=O)N1CCC[C@H]1C(=O)N[C@@H](CO)C(N)=O)[C@@H](C)CC)C(=O)O [SEQ ID NO: 37, Y-Aib-E-G-T-F-T-S-D-L-S-I-Q-K(yE-x53)-E-E-R-A-A-H-E-F-I-E-W-L-K-R-Aib-G-P-S-S-G-A-P-P-P-S-NH2] | – | – | 6.6 | 12.1 | 12100 | > 1 | > 1 | – | – |
